pKd: −log10 of the molar value. Values joined by “and” are separate entries in the source; they are usually repeats but may differ in a detail not shown here. Identical values can stand only once. Ends that are not written are not given here. * marks the point of attachment. Biotin = O=C1N[C@H]2[C@H](CS[C@H]2CCCCC(=O)*)N1
How the values were obtained:
human IgG1 = human IgG1 (Homo sapiens, UniProt P01857); assay: action of human and bacterial proteases on human IgG1 (Table 1); format: biochemical; conditions: for Major Product: None = no detectable cleavage in 24 hours; for Cleaved Site: human IgG1 heavy chain, EU numbering
Sequence of human IgG1 (P01857 1-330 isoform P01857-1, other chains not shown): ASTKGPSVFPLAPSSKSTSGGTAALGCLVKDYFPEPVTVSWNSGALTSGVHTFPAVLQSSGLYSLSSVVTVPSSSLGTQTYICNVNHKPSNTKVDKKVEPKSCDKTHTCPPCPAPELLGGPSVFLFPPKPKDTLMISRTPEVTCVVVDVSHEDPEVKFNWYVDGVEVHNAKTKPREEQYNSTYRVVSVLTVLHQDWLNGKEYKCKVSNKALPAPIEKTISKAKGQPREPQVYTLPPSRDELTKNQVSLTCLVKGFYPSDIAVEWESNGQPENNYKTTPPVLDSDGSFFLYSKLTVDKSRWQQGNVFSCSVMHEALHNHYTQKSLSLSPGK
Method: Table 1 is a summary of the findings concerning the action of human proteases and two bacterial proteases on human IgG1. The term “Coagulation proteinases” refers to serum coagulation cascade proteins including; FXIIa, FIXa, FXa, thrombin and activated protein C; plasmin was plasminogen co-incubated with plasminogen activators; tPA, streptokinase and staphylokinase; “plasminogen activators alone” are without plasminogen; and the MMPs were recombinant proteinases obtained either as the active form or the pro-enzyme as detailed in the Materials; and “None” denotes no detectable cleavage in 24 hours. Except where indicated all enzymes where human. The residue designations are for the EU numbering system for the IgG1 antibody heavy chain where the 25 residues of SEQ ID NO: 1 corresponds to residues 219 through 243 of the complete mature heavy chain.

[1] = molecular target: Fab fragment of the 2095-2 antibody; conditions: 25° C; for kd / ka: 1:1 (Langmuir) model; for ka: global fit of three Fab surface densities; for pKd: calculated KD
Method: The specificity of binding was further examined using a Fab fragment of the 2095-2 antibody using a surface plasmon resonance platform (Biacore). Briefly, the Fab was immobilized to a CM5 sensor chip in a Biacore 2000 at three different surface densities (8500, 1650, and 350 RU) using standard NHS/EDC coupling. The running buffer contained 10 mM HEPES pH 7.4, 150 mM NaCl, and 0.01% Tween-20. Data were collected at 25° C.
Three N-terminally biotinylated peptides were tested for binding of to the immobilized Fab: WT, representing the expected sequence of a peptide fragment from a human IgG1 cleavage site after cleavage by the Streptococcus pyogenes IdeS protease; E233A, representing a variant of having a single alanine substitution at the amino acid residue four positions upstream of the C-terminus; and L234A, a variant having a single alanine substitution at the amino acid residue three positions upstream from the C-terminus. The peptides were modified by substituting serine for cysteine to make them compatible with the coupling chemistry and preserve the monomeric structure.
Peptides Wild type and E233A were tested in a 3-fold dilution series using 588 nM and 2.9 uM as the highest concentration, respectively. Peptide L234A was tested at 14.7 uM as the highest concentration in a 2-fold dilution series. Each peptide concentration series was tested in triplicate over the three different density Fab surfaces. The association and dissociation were monitored for 1 minute. Surfaces were regenerated with a 12 second injection of 1/500 dilution of phosphoric acid.

platelets = assay: circulating platelet counts in dogs; format: in vivo, dog
Method: First, the c7E3 antibody antigen binding and platelet depletion parameters were established in dogs.
c7E3 IgG and c7E3 IgG single-cleaved by IdeS protease were also compared in vivo. Three groups of 5 animals received either saline control, intact c7E3 IgG (0.05 mg/kg) or c7E3 single-cleaved IgG (0.05 mg/kg). Platelet counts were monitored at baseline and at 2, 24, 48, 72 and 96 hours post-administration. Limiting the study to 5 days minimized the likelihood of anti-c7E3 immune responses that might confound the interpretation of the results. The results are presented in FIG. 3 as the mean platelet count±SD for each animal group at each time point. The extent of the error bars connotes the normal variability of platelet counts in different animals (for example, the predose counts for the 5 animals in the single-cleaved IgG treatment group were 175,000, 355,000, 305,000, 276,000 and 334,000 per μL, respectively).
To be consistent with the prior experiments, the variants of c7E3 were all administered at the 0.05 mg/kg dose. The unique aspect of the experiment (groups 6 and 7) involves the infusion of the first targeting mAb followed by the cleavage site specific mAb after a 10 minute delay. […] Platelet counts were monitored over a 96-hour period. […]

[2] = system: platelet surface IIb/III3 receptors; assay: platelet aggregation assay; format: cell-based; conditions: 5 μM ADP; compared with intact c7E3 IgG
Method: c7E3 inhibits platelet aggregation by binding to platelet surface IIb/III3 receptors—thereby blocking the ability of fibrinogen to bind to the receptors on activated platelets and to clump them together. The respective inhibitory profiles of intact and single-cleaved c7E3 IgG were tested in a platelet aggregation assay. Platelet aggregation is measured as an increase of light transmission through a platelet suspension after activation with a physiological agonist. The inhibition is compared to control aggregation to 5 μM adenosine diphosphate (ADP). The percent inhibition was calculated as: control aggregation—test aggregation X 100%, divided by control aggregation.

[3] = system: cleavage site specific analogueue peptide; assay: ELISA titers to the peptide analogueue after immunization of rabbits; format: in vivo, rabbit; conditions: reciprocal of the dilution at which a signal was detectable, individual immunized rabbits
Text: The procedure described in Example 3 verified that test subject rabbits have had previously developed immune titers to Staph. aureus antigens which would provide for natural bacterial targeting antibodies. To determine if rabbits would generated a sufficiently specific and robust cleavage site specific antibody response after vaccination, with cleavage site peptides, to protect against a bacterial challenge, the following experiment was perfomed where rabbits were immunized with a GluV8-cleavage site peptide analogueue (residues 7-15 of SEQ ID NO: 1, […]) conjugated to the immunogen KLH.
Following immunization, the reactivity of rabbit serum to the peptide analogueue was tested by ELISA. […] Cleavage site specific antibodies were also detected in the wiffle ball fluids of all six rabbits, with the same animal (657) having a low level of detectible antibodies.

S. aureus (ATCC 29213) = assay: wiffle ball (tissue cage) S. aureus infection model in rabbits; format: in vivo
Text: In order to test the capacity of cleavage site specific antibodies to rescue cleaved IgGs in vivo, a model for bacterial infection employing a “tissue cage” (Fernandez J A, et. al. (1997) Antimicrob. Agents Chemother. 43(3):667-671) was adopted. In this system, a wiffle ball is surgically implanted subcutaneously in the dorsal cervical area. The model allows the infectious agents to be localized within an easily accessible fluid compartment, a tissue pouch, and has been used to assess the efficacy of antibiotics against bacteria.
In the final phase of the study, the immunized and non-immunized rabbits were inoculated with 6.2 log10 colony forming units (CFUs) of S. aureus (ATCC 29213) directly into the wiffle-ball compartments.
The bacterial counts and test subject viability were monitored over the course of two weeks for bacterial counts and survival. The data shown in FIG. 9 indicate that during the first week of the study, the average bacterial counts for control animals were several logs higher than cleavage site specific vaccinated animals. For example, on day 2 the control had 7.2 log10 CFU/ml wiffle ball fluid while the immunized group had 5.2 log10 CFU/ml wiffle ball fluid.

## Neutrophil elastase: human serine endopeptidase
Human IgG1
  Major Product: Fab + Fc
  Cleaved Site: Thr^223-

## Interstitial collagenase (MMP-1): recombinant human MMP
Human IgG1
  Major Product: None

## Glutamyl endopeptidase I (Glu V8 protease): glutamyl endopeptidase I from Staph. aureus
Human IgG1
  Major Product: F(ab′)2 +
  Cleaved Site: Glu^233-

## Cathepsin D: human protease
Human IgG1
  Major Product: None

## Biotin-TSPPSPAPALLG [E233A]
[1]
  kd: 0.1070 ± 0.04 s⁻¹
  ka: 7.29 ± 0.03 M-1s-1 × 10^−5
  pKd: 6.83

## c7E3 single-cleaved IgG: c7E3 IgG single-cleaved in the lower hinge by IdeS protease
platelets; 0.05 mg/kg, groups of 5 animals, monitored to 96 hours
  effect on platelet numbers: essentially without effect
platelets; FIG. 12 study, groups of 3 animals, c7E3 variants 0.05 mg/kg, 2095-2 0.5 mg/kg
  effect on platelet numbers: without effect
[2]
  binding/inhibition of platelet aggregation after single lower hinge cleavage by IdeS: no loss of binding/inhibition

## Biotin-TSPPSPAPELLG [Wt]
[1]
  kd: 0.00443 ± 0.02 s⁻¹
  ka: 5.22 ± 0.04 M-1s-1 × 10^−5
  pKd: 8.07

## Stromelysin (MMP-3): recombinant human MMP
Human IgG1
  Major Product: F(ab′)2 +
  Cleaved Site: Pro^232-

## Biotin-TSPPSPAPEALG [L234A]
[1]
  kd: 1.03 ± 0.01 s⁻¹
  ka: 1.24 ± 0.01 M-1s-1 × 10^−5
  pKd: 5.08

## Matrilysin (MMP-7): recombinant human MMP
Human IgG1
  Major Product: F(ab′)2 +
  Cleaved Site: Leu^234-

## Cathepsin G: human serine endopeptidase
Human IgG1
  Major Product: F(ab′)2 +
  Cleaved Site: Glu^233-

## C-T-S-P-P-S-P-S-P-A-P-E (CTSPPSPSPAPE; also: conjugated to KLH) [Glutamyl endopeptidase cleavage site analogueue peptide conjugated to keyhole limpet hemocyanin, used to vaccinate rabbits]
[3]
  Serum (titer): 640 and 12,800 and 51,000 and 820,000 and 205,000
[3]; wiffle ball fluid
  Wiffle ball (titer): 3,200 and 12,800 (3×) and 51,000 and 320
S. aureus (ATCC 29213); day 2, immunized rabbits inoculated with 6.2 log10 CFUs
  average bacterial counts: 5.2 log10 CFU/ml wiffle ball fluid
S. aureus (ATCC 29213); end of the two week study
  animals viable: 100%

## Collagenase 2 (MMP-8): recombinant human MMP
Human IgG1
  Major Product: None

Source: US20120269834A1, “IMMUNOGLOBULIN CLEAVAGE FRAGMENT VACCINE COMPOSITIONS” (priority 2010, published 2012)
